Measured values published in patent US20240041042A1, “1-(PYRIDYL)-5-AZINYLPYRAZOLE DERIVATIVES, AND THEIR USE FOR CONTROL OF UNDESIRED PLANT GROWTH” (Bayer Aktiengesellschaft, priority 2020, published 2024).
Read-outs that look alike come from different tables or passages of the source.

What was measured:
Type in all cases: in vivo
[1] = test system: Alopecurus myosuroides (ALOMY); assay: Pre-emergence herbicidal action against ALOMY; settings: 320 g/ha; scored visually after about 3 weeks; 100% = plants have died
In short: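 Herbicide applied to soil before seedling emergence, at 600 l/ha spray volume with 0.5% additive and rates up to 320 g/ha. Evaluation: visual percentage effect, about 3 weeks later, greenhouse-grown pots compared with untreated ones.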

Brassica napus (BRSNW) = settings: 80 g/ha, crop plant compatibility, in comparison to untreated controls
In short: (§1)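 Scoring: visual, % of untreated control, about 3 weeks after a pre-emergence application to the soil surface. Application used WP or EC formulations diluted in water with 0.5% additive at 600 l/ha; dosage levels are marked by suffixes a, b and c.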

Oryza sativa (ORYSA) [2] = settings: pre-emergence, crop plant compatibility, in comparison to untreated controls
In short: as §1

[3] = test system: Triticum aestivum (TRZAS); settings: pre-emergence, crop plant compatibility, in comparison to untreated controls
In short: as §1

Zea mays (ZEAMX) [4] = settings: pre-emergence, crop plant compatibility, in comparison to untreated controls
In short: as §1

[5] = test system: Abutilon theophrasti (ABUTH); assay: Post-emergence herbicidal action against ABUTH; settings: 320 g/ha, visual rating about 3 weeks after treatment vs untreated controls (100% = plants have died, 0% = like control plants)
In short: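 Values are percent visual activity (0% like control, 100% plants dead) after about 3 weeks in the greenhouse. Treatment: post-emergence spray at one-leaf stage, 600 l/ha spray volume, 0.5% additive, doses 320 g/ha or lower.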

Oryza sativa (ORYSA) [6] = settings: crop plant compatibility, effect in comparison to untreated controls
In short: (§2)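 One-leaf-stage crops (2–3 wk post-sowing, sandy loam, greenhouse) sprayed on green parts; 0.5% additive, 600 l/ha water. Rated by eye ~3 wk later, % vs untreated; suffixes a/b/c mark different dosages.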

[7] = test system: Triticum aestivum (TRZAS); settings: crop plant compatibility, 80 g/ha, effect vs untreated controls
In short: as §2

Zea mays (ZEAMX) [8] = settings: crop plant compatibility, effect vs untreated controls
In short: as §2

Pre-emergence action against BRSNW in % (Brassica napus (BRSNW)): 0% | Pre-emergence action against ORYSA in % (Oryza sativa (ORYSA) [2]; 80 g/ha): 0% | Pre-emergence action against ORYSA in % (Oryza sativa (ORYSA) [2]; 320 g/ha): 20% | Pre-emergence action against TRZAS in % ([3]; 80 g/ha): 0% | Pre-emergence action against TRZAS in % ([3]; 320 g/ha): 0% | Pre-emergence action against ZEAMX in % (Zea mays (ZEAMX) [4]; 80 g/ha): 0% | Pre-emergence action against ZEAMX in % (Zea mays (ZEAMX) [4]; 320 g/ha): 10% | Post-emergence action against ORYSA in % (Oryza sativa (ORYSA) [6]; 80 g/ha): 0% | Post-emergence action against ORYSA in % (Oryza sativa (ORYSA) [6]; 320 g/ha): 0% | Post-emergence action against TRZAS in % [7]: 0% | Post-emergence action against ZEAMX in % (Zea mays (ZEAMX) [8]; 80 g/ha): 0% | Post-emergence action against ZEAMX in % (Zea mays (ZEAMX) [8]; 320 g/ha): 0%
SMILES: CC(=O)CNC(=O)COc1nn(-c2ccnc(F)c2)c(-c2ccc(F)nc2)c1Br [III-07]
Pre-emergence action against ALOMY [1]: 80% | Post-emergence action against ABUTH in % [5]: 80%
